According to US20250051277A1, “DELIVERY OF THERAPEUTIC ALKALOID COMPOUNDS” (Sensorium Therapeutics, Inc., priority 2021, published 2025):
Like-named read-outs stand apart in the source and are kept apart here.

Tests used:
[1] = assay type: physicochemical; settings: DI water, 25° C., 0.5 mM
[2] = assay type: physicochemical; settings: SGF with pepsin, pH 1.5, 37° C., 0.5 mM

Row | SMILES | Condition 2 Conversion (%) ([1]; time 1 min) | Condition 2 Conversion (%) ([1]; time 5 min) | Condition 2 Conversion (%) ([1]; time 30 min) | Condition 2 Conversion (%) ([1]; time 1 h) | Condition 2 Conversion (%) ([1]; time 4 h) | Condition 2 Conversion (%) ([1]; time 24 h) | Condition 1 Conversion (%) ([2]; time 1 min) | Condition 1 Conversion (%) ([2]; time 5 min) | Condition 1 Conversion (%) ([2]; time 30 min) | Condition 1 Conversion (%) ([2]; time 1 h) | Condition 1 Conversion (%) ([2]; time 4 h) | Condition 1 Conversion (%) ([2]; time 24 h)
1 | COc1ccc([C@]23CCN(C)[C@H]2CC2(CC3)OCC(C(=O)O)O2)cc1OC (stereo partly drawn) [Compound 214, (3aS,7aS)-3a-(3,4-dimethoxyphenyl)-1-methyloctahydrospiro[indole-6,2′-[1,3]dioxolane]-4′-carboxylic acid] | 0 | 0 | 0 | 0 | 0 | 0 | 0 | 0 | 0 | 0 | 0 | 0
2 | COc1ccc([C@@]23CCC(=NNC(=O)c4ccc(F)cc4)C[C@@H]2N(C)CC3)cc1OC [Compound 220, N-[[(3aS)-3a-(3,4-dimethoxyphenyl)-1-methyl-2,3,4,5,7,7a-hexahydroindol-6-ylidene]amino]-4-fluoro-benzamide] | 20.02 | 21.53 | 22.27 | 55.36 | 88.25 | 89.93 | 86.72 | 100 | 100 | 100 | 100 | 100
3 | COc1ccc([C@@]23CC/C(=N\NC(=O)NC[C@H]4CC[C@H](C(=O)O)CC4)C[C@@H]2N(C)CC3)cc1OC [Compound 258, 4-[[[[(3aS,7aS)-3a-(3,4-dimethoxyphenyl)-1-methyl-2,3,4,5,7,7a-hexahydroindol-6-ylidene]amino]carbamoylamino]methyl]cyclohexanecarboxylicacid] | 0 | 0 | 0 | 0 | 0 | 0 | 0 | 0 | 42.82 | 100 | 100 | 100
4 | COc1ccc([C@@]23CCC(=NOCCON=C4CC[C@@]5(c6ccc(OC)c(OC)c6)CCN(C)[C@H]5C4)C[C@@H]2N(C)CC3)cc1OC [Compound 210, (3aS,7aS)-N-[2-[[(3aS,7aS)-3a-(3,4-dimethoxyphenyl)-1-methyl-2,3,4,5,7,7a-hexahydroindol-6-ylidene]amino]oxyethoxy]-3a-(3,4-dimethoxyphenyl)-1-methyl-2,3,4,5,7,7a-hexahydroindol-6-imine] | 0 | 0 | 0 | 0 | 0 | 0 | 0 | 0 | 3.48 | 7.51 | 14.75 | 15.35
5 | COc1ccc([C@@]23CCC(=NOCC4CC4)C[C@@H]2N(C)CC3)cc1OC [Compound 205, (3aS,7aS)-N-(cyclopropylmethoxy)-3a-(3,4-dimethoxyphenyl)-1-methyl-2,3,4,5,7,7a-hexahydroindol-6-imine] | 0 | 0 | 0 | 0 | 0 | 0 | 0 | 0 | 4.5 | 9.4 | 16.7 | 19.3
6 | COc1ccc([C@@]23CCC(=NNc4ccc(Cl)cc4)C[C@@H]2N(C)CC3)cc1OC [Compound 221, N-[[(3aS,7aS)-3a-(3,4-dimethoxyphenyl)-1-methyl-2,3,4,5,7,7a-hexahydroindol-6-ylidene]amino]-4-chloro-aniline] | 0 | 0 | 0 | 0 | 0 | 0 | 0 | 0 | 2.9 | 3.4 | 17.5 | 95.1
7 | COc1ccc([C@@]23CC/C(=N\NC(=O)NCCc4cccs4)C[C@@H]2N(C)CC3)cc1OC [Compound 256, 1-[[(3aS,7aS)-3a-(3,4-dimethoxyphenyl)-1-methyl-2,3,4,5,7,7a-hexahydroindol-6-ylidene]amino]-3-[2-(2-thienyl)ethyl]urea] | 0 | 0 | 0 | 0 | 43 | 0 | 0 | 0 | 100 | 100 | 23 | 100
8 | COc1ccc([C@@]23CCC(=NNC(=O)COc4ccccc4)C[C@@H]2N(C)CC3)cc1OC [Compound 223, N-[[(3aS,7aS)-3a-(3,4-dimethoxyphenyl)-1-methyl-2,3,4,5,7,7a-hexahydroindol-6-ylidene]amino]-2-phenoxy-acetamide] | 9.8 | 10.4 | 13.5 | 18.5 | 50.1 | 81.3 | 100 | 100 | 100 | 100 | 100 | 100
9 | COc1ccc([C@@]23CC/C(=N/OC45CC6CC(CC(C6)C4)C5)C[C@@H]2N(C)CC3)cc1OC [Compound 301, (Z,3aS,7aS)-N-(1-adamantyloxy)-3a-(3,4-dimethoxyphenyl)-1-methyl-2,3,4,5,7,7a-hexahydroindol-6-imine] | 0 | 0 | 0 | 0 | 0 | 0 | 0 | 0 | 0 | 0 | 100 | 100
10 | COc1ccc([C@@]23CCC(=NNc4ncccc4C)C[C@@H]2N(C)CC3)cc1OC [Compound 364, (3aS,7aS)-3a-(3,4-dimethoxyphenyl)-1-methyl-6-(2-(3-methylpyridin-2-yl)hydrazineylidene)octahydro-1H-indole] | 0 | 0 | 0 | 35.78 | 47 | 78.89 | 10 | 100 | 14.91 | 16.09 | 77.07 | 90.5
11 | CCON=C1CC[C@@]2(c3ccc(OC)c(OC)c3)CCN(C)[C@H]2C1 [Compound 200, (3aS,7aS)-3a-(3,4-dimethoxyphenyl)-N-ethoxy-1-methyl-2,3,4,5,7,7a-hexahydroindol-6-imine] | 0 | 0 | 0 | 0 | 0 | 0 | 0 | 0 | 0 | 2.1 | 27.7 | 34.1
12 | COc1ccc([C@@]23CCC(=NNCc4ccccn4)C[C@@H]2N(C)CC3)cc1OC [Compound 369, (3aS,7aS)-3a-(3,4-dimethoxyphenyl)-1-methyl-6-(2-(pyridin-2-ylmethyl)hydrazineylidene)octahydro-1H-indole] | 0 | 0 | 0 | 0 | 45 | 50 | 30 | 100 | 100 | 100 | 100 | 100
13 | COc1ccc([C@@]23CCC(=NNC(=O)c4ccc(Cl)cc4)C[C@@H]2N(C)CC3)cc1OC [Compound 240, N-[[(3aS,7aS)-3a-(3,4-dimethoxyphenyl)-1-methyl-2,3,4,5,7,7a-hexahydroindol-6-ylidene]amino]-4-chloro-benzamide] | 35.7 | 30 | 40.5 | 43.3 | 54.2 | 100 | 84 | 100 | 100 | 100 | 100 | 100
